Source: patent US9980965B2, “Treatment of autoimmune disease” (MingSight Pharmaceuticals, Inc., priority 2014, dated 2018)
Read-outs that look alike come from different tables or passages of the source. Marks after values point to notes of the source that are not given here.

Tests used:
[1] = tested on: EAE induced by MBP69-88/CFA immunization and pertussis toxin injection; type: in vivo, Lewis rats; details: for Median day of onset (all rats) / Mean day of onset +/− SEM (sick rats) / EAE incidence (%): p.o.; for Median day of onset (all rats): vehicle 9.0; for Mean day of onset +/− SEM (sick rats): vehicle 9.3 +/− 0.6; for EAE incidence (%): vehicle 100.0%
pSHP2 (PKCβ cell assay) = test: pSHP2 (PKCβ cell assay); type: cell-based
From the text: (§1) The methods for these determinations have been described (Grant, et al. 2010, Eur J Pharmacol. 627:16-25).

Human PKC betaII = Human PKC betaII (Homo sapiens, UniProt P05771); test: In vitro PKC inhibition, PKC betaII; type: biochemical
Sequence of Human PKC betaII (P05771 1-673 isoform P05771-2): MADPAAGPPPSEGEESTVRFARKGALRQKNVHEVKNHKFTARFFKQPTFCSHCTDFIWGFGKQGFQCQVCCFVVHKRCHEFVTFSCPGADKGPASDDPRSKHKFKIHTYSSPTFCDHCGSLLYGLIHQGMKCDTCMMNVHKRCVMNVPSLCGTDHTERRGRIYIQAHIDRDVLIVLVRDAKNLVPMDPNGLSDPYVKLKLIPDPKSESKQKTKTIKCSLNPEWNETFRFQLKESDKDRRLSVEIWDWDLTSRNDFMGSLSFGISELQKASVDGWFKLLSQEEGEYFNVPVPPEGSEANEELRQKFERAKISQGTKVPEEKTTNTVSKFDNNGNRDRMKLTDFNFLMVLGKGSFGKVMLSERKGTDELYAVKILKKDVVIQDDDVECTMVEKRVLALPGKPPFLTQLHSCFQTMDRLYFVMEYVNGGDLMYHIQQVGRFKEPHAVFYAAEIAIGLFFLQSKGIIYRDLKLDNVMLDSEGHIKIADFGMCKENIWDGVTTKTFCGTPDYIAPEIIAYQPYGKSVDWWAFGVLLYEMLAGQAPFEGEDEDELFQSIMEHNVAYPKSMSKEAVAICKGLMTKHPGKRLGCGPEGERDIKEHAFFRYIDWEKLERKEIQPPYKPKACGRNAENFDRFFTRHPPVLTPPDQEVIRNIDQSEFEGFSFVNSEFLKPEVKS

Human PKC delta = Human PKC delta (Homo sapiens, UniProt Q05655); test: In vitro PKC inhibition, PKC delta; type: biochemical
Sequence of Human PKC delta (Q05655 whole entry): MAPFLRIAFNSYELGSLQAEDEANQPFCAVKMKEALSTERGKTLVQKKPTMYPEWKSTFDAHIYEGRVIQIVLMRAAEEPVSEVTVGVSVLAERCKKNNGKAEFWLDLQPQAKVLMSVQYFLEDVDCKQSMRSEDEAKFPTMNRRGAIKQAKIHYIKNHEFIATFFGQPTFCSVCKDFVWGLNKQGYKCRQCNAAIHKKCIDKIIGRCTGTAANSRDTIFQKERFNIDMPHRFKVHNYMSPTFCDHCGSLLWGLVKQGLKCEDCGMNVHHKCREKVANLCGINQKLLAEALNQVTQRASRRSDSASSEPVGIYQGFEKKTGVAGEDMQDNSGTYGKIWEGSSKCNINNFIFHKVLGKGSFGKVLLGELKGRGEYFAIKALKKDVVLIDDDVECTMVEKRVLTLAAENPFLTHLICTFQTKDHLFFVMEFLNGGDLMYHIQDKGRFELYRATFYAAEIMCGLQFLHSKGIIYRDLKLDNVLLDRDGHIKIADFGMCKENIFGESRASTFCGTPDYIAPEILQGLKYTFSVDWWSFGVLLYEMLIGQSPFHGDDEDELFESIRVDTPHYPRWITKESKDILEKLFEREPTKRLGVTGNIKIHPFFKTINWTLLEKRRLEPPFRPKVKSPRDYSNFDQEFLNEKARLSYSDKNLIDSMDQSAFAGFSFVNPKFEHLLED
From the text: as §1

[2] = Separate pharmacokinetics experiments in mice; type: in vivo; details: 60 mg/kg dose, oral
Human PKC gamma = Human PKC gamma (Homo sapiens, UniProt P05129); test: In vitro PKC inhibition, PKC gamma; type: biochemical
From the text: as §1

Human PKC mu = target: T1, Human PKC mu (Homo sapiens, UniProt Q15139); test: In vitro PKC inhibition, PKC mu; type: biochemical
T1 sequence (Q15139 1-912): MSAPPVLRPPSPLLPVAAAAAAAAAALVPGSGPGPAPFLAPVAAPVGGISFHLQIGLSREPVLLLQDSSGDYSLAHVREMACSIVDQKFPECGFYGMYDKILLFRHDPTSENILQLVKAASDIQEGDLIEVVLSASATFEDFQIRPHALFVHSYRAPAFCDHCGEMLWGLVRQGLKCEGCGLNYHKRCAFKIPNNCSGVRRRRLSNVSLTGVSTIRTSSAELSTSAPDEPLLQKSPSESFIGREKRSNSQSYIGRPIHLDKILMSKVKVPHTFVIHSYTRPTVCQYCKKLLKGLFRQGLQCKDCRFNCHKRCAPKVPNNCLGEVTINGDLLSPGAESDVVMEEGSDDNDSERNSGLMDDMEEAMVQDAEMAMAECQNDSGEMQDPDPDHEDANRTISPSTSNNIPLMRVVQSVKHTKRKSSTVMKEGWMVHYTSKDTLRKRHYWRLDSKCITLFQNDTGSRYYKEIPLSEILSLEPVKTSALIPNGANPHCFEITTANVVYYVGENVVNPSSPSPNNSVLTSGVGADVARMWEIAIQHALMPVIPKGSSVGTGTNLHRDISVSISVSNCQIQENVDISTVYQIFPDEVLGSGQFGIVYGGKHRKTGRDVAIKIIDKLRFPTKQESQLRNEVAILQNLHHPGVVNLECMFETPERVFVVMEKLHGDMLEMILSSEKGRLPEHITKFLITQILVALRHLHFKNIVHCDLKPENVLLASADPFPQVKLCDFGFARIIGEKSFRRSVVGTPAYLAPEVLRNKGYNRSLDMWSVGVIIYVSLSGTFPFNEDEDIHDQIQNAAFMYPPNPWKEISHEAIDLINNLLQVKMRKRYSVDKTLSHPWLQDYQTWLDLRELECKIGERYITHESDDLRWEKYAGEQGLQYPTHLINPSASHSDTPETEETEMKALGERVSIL
From the text: as §1

Human PKC iota = target: T2, Human PKC iota (Homo sapiens, UniProt P41743); test: In vitro PKC inhibition, PKC iota; type: biochemical
T2 sequence (P41743 1-596): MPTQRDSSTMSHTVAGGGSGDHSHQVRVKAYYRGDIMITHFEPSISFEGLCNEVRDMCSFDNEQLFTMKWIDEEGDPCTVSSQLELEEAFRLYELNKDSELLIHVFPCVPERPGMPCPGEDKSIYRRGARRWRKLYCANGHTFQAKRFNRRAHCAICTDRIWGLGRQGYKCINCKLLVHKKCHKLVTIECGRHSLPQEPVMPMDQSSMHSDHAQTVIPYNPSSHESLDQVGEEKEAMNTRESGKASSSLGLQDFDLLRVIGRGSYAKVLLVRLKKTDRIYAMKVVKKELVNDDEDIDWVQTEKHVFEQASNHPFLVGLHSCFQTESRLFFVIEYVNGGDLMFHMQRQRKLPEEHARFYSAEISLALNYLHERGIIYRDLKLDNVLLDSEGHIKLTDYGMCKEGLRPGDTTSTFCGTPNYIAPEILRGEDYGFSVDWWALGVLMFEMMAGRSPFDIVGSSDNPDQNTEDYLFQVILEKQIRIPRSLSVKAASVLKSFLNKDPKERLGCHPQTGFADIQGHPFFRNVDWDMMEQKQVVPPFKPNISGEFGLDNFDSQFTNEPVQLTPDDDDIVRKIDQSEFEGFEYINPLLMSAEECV
From the text: as §1

Human PKC betaI = Human PKC betaI (Homo sapiens, UniProt P05771); test: In vitro PKC inhibition, PKC betaI; type: biochemical
Sequence of Human PKC betaI (P05771 whole entry): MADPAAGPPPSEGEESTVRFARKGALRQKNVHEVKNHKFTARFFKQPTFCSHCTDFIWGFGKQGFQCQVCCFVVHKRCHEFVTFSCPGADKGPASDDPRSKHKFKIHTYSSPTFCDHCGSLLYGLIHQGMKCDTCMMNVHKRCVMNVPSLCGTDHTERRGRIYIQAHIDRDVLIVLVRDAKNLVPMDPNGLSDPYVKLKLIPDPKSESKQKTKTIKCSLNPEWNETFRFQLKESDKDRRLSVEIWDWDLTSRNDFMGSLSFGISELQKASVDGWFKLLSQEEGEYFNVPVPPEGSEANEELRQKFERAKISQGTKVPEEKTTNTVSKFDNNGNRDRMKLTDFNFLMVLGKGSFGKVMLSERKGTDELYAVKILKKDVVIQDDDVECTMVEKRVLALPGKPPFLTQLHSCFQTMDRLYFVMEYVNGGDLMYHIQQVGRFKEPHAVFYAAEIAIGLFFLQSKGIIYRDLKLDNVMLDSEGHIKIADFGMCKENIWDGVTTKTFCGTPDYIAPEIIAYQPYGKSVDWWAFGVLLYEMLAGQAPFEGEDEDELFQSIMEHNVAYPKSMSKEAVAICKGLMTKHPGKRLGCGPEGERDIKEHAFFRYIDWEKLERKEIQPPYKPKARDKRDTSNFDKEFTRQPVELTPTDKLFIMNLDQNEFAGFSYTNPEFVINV

[3] = 15 and 30 mg/kg BID, compared to the vehicle control group

CCCCCCCCc1ccc(CCC(N)(CO)CO)cc1 [FTY720, fingolimod, reference compound]
Median day of onset (all rats) ([1]; 0.5 mg/kg, QD): 8.0 days | Mean day of onset +/− SEM (sick rats) ([1]; 0.5 mg/kg, QD): 8.0 ± 0.3 days

Cc1ncc(F)c(Nc2n[nH]c3c2CN(C(=O)N2C[C@@H](C)N(CC4CCOCC4)C[C@@H]2C)C3(C)C)n1 [Compound A, 5-{[(2S,5R)-2,5-Dimethyl-4-(tetrahydro-2H-pyran-4-ylmethyl)piperazin-1-yl]carbonyl}-N-(5-fluoro-2-methylpyrimidin-4-yl)-6,6-dimethyl-1,4,5,6-tetrahydropyrrolo[3,4-c]pyrazol-3-amine]
IC50 (pSHP2 (PKCβ cell assay)): 9.8 nM | IC50 (Human PKC betaII): 7.6 nM | Ki (Human PKC betaII; recombinant PKC beta (betaII in Table 1)): 5.3 nM | IC50 (Human PKC delta): > 1000 nM | inhibition of PKC delta (in words) (Human PKC delta): does not significantly inhibit | exposure in mice [2]: unexpectedly low and insufficient exposure | Median day of onset (all rats) ([1]; 7.5 mg/kg, BID): 9.0 days | Mean day of onset +/− SEM (sick rats) ([1]; 7.5 mg/kg, BID): 9.0 ± 0.5 days | EAE incidence (%) ([1]; 7.5 mg/kg, BID): 100.0% | Median day of onset (all rats) ([1]; 15 mg/kg, BID): 8.0 days | Mean day of onset +/− SEM (sick rats) ([1]; 15 mg/kg, BID): 8.5 ± 0.4 days | EAE incidence (%) ([1]; 15 mg/kg, BID): 100.0% | Mean day of onset +/− SEM (sick rats) ([1]; 30 mg/kg, BID): 9.0 ± 0.9 days | EAE incidence (%) ([1]; 30 mg/kg, BID, p < 0.05 vs. vehicle): 50.0%* | clinical score (EAE) ([1]; 7.5, 15 and 30 mg/kg BID): dose-dependent decrease | end severity (FIG. 5) [1, 3]: significantly reduced | maximum EAE severity (FIG. 5) [1, 3]: significantly reduced | EAE incidence (in words) ([1]; highest dose (30 mg/kg BID)): significantly reduced | efficacy compared with fingolimod ([1]; highest dose employed (30 mg/kg BID) vs. FTY720 0.5 mg/kg QD): appeared superior to fingolimod | IC50 (Human PKC gamma): 57.5 nM | IC50 (Human PKC mu): 314 nM | IC50 (Human PKC iota): > 1000 nM | IC50 (Human PKC betaI): 8.1 nM
